In patent US11925653B2, “Combination therapy effective against microorganisms, including drug resistant microorganisms” (Fleurir ABX LLC, priority 2021, dated 2024):

Key:
bacteria = assay: spontaneous mutational frequency (SMF; resistance); type: cell-based; conditions: resistant colonies observed divided by total inoculum; plates with 4-fold MIC of the combination or 2-fold MIC of each antibiotic alone
Experimental: MIC was further evaluated to confirm resistance, and the spontaneous mutational frequency was calculated based on the following equation: […]
The spontaneous mutational frequency (SMF; resistance) was calculated as the number of resistant colonies observed divided by the total inoculum.

E. faecalis = conditions: cited from earlier work
H. influenzae = conditions: cited from earlier work
[1] = representative pharmacokinetic parameters; type: in vivo; conditions: Dose: Fosfomycin 3000 mg, trimethoprim 720 mg
Source text: The therapeutically effective amount may be modified by pharmacokinetic, and pharmacodynamic analysis as is understood in the field. In some embodiments, the novel composition may be provided prophylactically or preventatively or protectively, which may, in some instances, be at or below a therapeutically effective amount.

SMILES	frequency of spontaneous mutants resistant (spontaneous mutational frequency, SMF) (bacteria)	MIC of co-trimoxazole, per component (E. faecalis) [µg/mL]	MIC of co-trimoxazole, per component (H. influenzae) [µg/mL]	kel (elimination rate constant) [1] [h⁻¹]	Tmax ([1]; sulfamethoxazole 3600 mg) [h]
O=C1CN(/N=C/c2ccc([N+](=O)[O-])o2)C(=O)N1 [nitrofurantoin]	3.40×10^−8	–	–	–	–
Cc1cc(NS(=O)(=O)c2ccc(N)cc2)no1 [sulfamethoxazole, N1-(5-methyl-3-isoxazolyl)sulfanilamide]	–	38	≤ 9.5	–	–
COc1cc(Cc2cnc(N)nc2N)cc(OC)c1OC [trimethoprim, 2,4-diamino-5-(3,4,5-trimethoxybenzyl)pyrimidine]	–	2	0.5	0.08	2
